Source: PMC8364686, “Safety, tolerability, pharmacokinetics and pharmacodynamics of single oral doses of BI 187004, an inhibitor of 11beta-hydroxysteroid dehydrogenase-1, in healthy male volunteers with overweight or obesity” (Clinical Diabetes and Endocrinology, 2021)

Assay: Plasma pharmacokinetics of BI 187004 after single oral doses (LC–MS/MS)
Settings: male, human, plasma, po

For `N#Cc1ccc2c(c1)[C@H]1CCCN(C(=O)c3ccc4[nH]cnc4c3)[C@H]1C2` [BI 187004], the concentration at 2.5 h (2.5 mg, Plasma concentration gMean, 2.5 mg single oral, 2.5 h) was 7.33 nM, the concentration at 3 h (2.5 mg, Plasma concentration gMean, 2.5 mg single oral, 3 h) was 6.19 nM and the concentration at 4 h (2.5 mg, Plasma concentration gMean, 2.5 mg single oral, 4 h) was 5.87 nM. For the same compound, the concentration at 5 h (2.5 mg, Plasma concentration gMean, 2.5 mg single oral, 5 h) was 6.61 nM, the concentration at 6 h (2.5 mg, Plasma concentration gMean, 2.5 mg single oral, 6 h) was 5.38 nM and the concentration at 10 h (2.5 mg, Plasma concentration gMean, 2.5 mg single oral, 10 h) was 4.38 nM. For the same compound, the concentration at 12 h (2.5 mg, Plasma concentration gMean, 2.5 mg single oral, 12 h) was 4.53 nM, the concentration at 24 h (2.5 mg, Plasma concentration gMean, 2.5 mg single oral, 24 h) was 4.54 nM and the concentration at 48 h (2.5 mg, Plasma concentration gMean, 2.5 mg single oral, 48 h) was 3.93 nM. It also gave a concentration at 8 h (2.5 mg, Plasma concentration, individual subjects, 2.5 mg single oral, planned time 8 h) of 6.73 nM, a concentration at 10 h (2.5 mg, Plasma concentration, individual subjects, 2.5 mg single oral, planned time 10 h) of 5.99 nM and a concentration at 12 h (2.5 mg, Plasma concentration, individual subjects, 2.5 mg single oral, planned time 12 h) of 6.44 nM. For the same compound, the concentration at 24 h (2.5 mg, Plasma concentration, individual subjects, 2.5 mg single oral, planned time 24 h) was 4.19 nM, the concentration at 36 h (2.5 mg, Plasma concentration, individual subjects, 2.5 mg single oral, planned time 36 h) was 5.06 nM and the concentration at 48 h (2.5 mg, Plasma concentration, individual subjects, 2.5 mg single oral, planned time 48 h) was 3.58 nM. It also gave a concentration at 72 h (2.5 mg, Plasma concentration, individual subjects, 2.5 mg single oral, planned time 72 h) of 3.34 nM, a concentration at 96 h (2.5 mg, Plasma concentration, individual subjects, 2.5 mg single oral, planned time 96 h) of 3.04 nM and an AUC(0-inf) (5 mg) of 2.5 µM·h. For the same compound, the AUC(0-t) (5 mg) was 1.49 µM·h, the Cmax (5 mg) was 150 nM and the Tmax (5 mg) was 1 h. For the same compound, the Vd/F (5 mg) was 281 L, the half-life (5 mg) was 33.5 h and the concentration at 24 h (5 mg, C24 gMean (%gCV), 5 mg single oral dose) was 30 nM. The concentration at 0.5 h (5 mg, Plasma concentration Mean, 5 mg single oral) was 101 nM, the concentration at 1 h (5 mg, Plasma concentration Mean, 5 mg single oral, 1 h) was 147 nM and the concentration at 1.5 h (5 mg, Plasma concentration Mean, 5 mg single oral, 1.5 h) was 135 nM. The concentration at 2 h (5 mg, Plasma concentration Mean, 5 mg single oral, 2 h) was 122 nM, the concentration at 2.5 h (5 mg, Plasma concentration Mean, 5 mg single oral, 2.5 h) was 123 nM and the concentration at 3 h (5 mg, Plasma concentration Mean, 5 mg single oral, 3 h) was 114 nM. For the same compound, the concentration at 4 h (5 mg, Plasma concentration Mean, 5 mg single oral, 4 h) was 105 nM, the concentration at 5 h (5 mg, Plasma concentration Mean, 5 mg single oral, 5 h) was 97.4 nM and the concentration at 6 h (5 mg, Plasma concentration Mean, 5 mg single oral, 6 h) was 81.2 nM. For the same compound, the concentration at 8 h (5 mg, Plasma concentration Mean, 5 mg single oral, 8 h) was 72.9 nM, the concentration at 10 h (5 mg, Plasma concentration Mean, 5 mg single oral, 10 h) was 58 nM and the concentration at 12 h (5 mg, Plasma concentration Mean, 5 mg single oral, 12 h) was 49.7 nM. For the same compound, the concentration at 24 h (5 mg, Plasma concentration Mean, 5 mg single oral, 24 h) was 31 nM, the concentration at 36 h (5 mg, Plasma concentration Mean, 5 mg single oral, 36 h) was 14.9 nM and the concentration at 48 h (5 mg, Plasma concentration Mean, 5 mg single oral, 48 h) was 13.1 nM. For the same compound, the concentration at 72 h (5 mg, Plasma concentration Mean, 5 mg single oral, 72 h) was 7.42 nM, the concentration at 96 h (5 mg, Plasma concentration Mean, 5 mg single oral, 96 h) was 4.78 nM and the concentration at 0.5 h (5 mg, Plasma concentration Median, 5 mg single oral) was 128 nM. The concentration at 1 h (5 mg, Plasma concentration Median, 5 mg single oral, 1 h) was 141 nM, the concentration at 1.5 h (5 mg, Plasma concentration Median, 5 mg single oral, 1.5 h) was 140 nM and the concentration at 2 h (5 mg, Plasma concentration Median, 5 mg single oral, 2 h) was 126 nM. The concentration at 2.5 h (5 mg, Plasma concentration Median, 5 mg single oral, 2.5 h) was 121 nM, the concentration at 3 h (5 mg, Plasma concentration Median, 5 mg single oral, 3 h) was 113 nM and the concentration at 4 h (5 mg, Plasma concentration Median, 5 mg single oral, 4 h) was 98.4 nM. The concentration at 5 h (5 mg, Plasma concentration Median, 5 mg single oral, 5 h) was 98.1 nM, the concentration at 6 h (5 mg, Plasma concentration Median, 5 mg single oral, 6 h) was 78.8 nM and the concentration at 8 h (5 mg, Plasma concentration Median, 5 mg single oral, 8 h) was 71 nM. For the same compound, the concentration at 10 h (5 mg, Plasma concentration Median, 5 mg single oral, 10 h) was 57.1 nM, the concentration at 12 h (5 mg, Plasma concentration Median, 5 mg single oral, 12 h) was 50.3 nM and the concentration at 24 h (5 mg, Plasma concentration Median, 5 mg single oral, 24 h) was 32.2 nM. For the same compound, the concentration at 36 h (5 mg, Plasma concentration Median, 5 mg single oral, 36 h) was 15.5 nM, the concentration at 48 h (5 mg, Plasma concentration Median, 5 mg single oral, 48 h) was 11.2 nM and the concentration at 72 h (5 mg, Plasma concentration Median, 5 mg single oral, 72 h) was 6.1 nM. It also gave a concentration at 96 h (5 mg, Plasma concentration Median, 5 mg single oral, 96 h) of 4.24 nM, a concentration at 0.5 h (5 mg, Plasma concentration gMean, 5 mg single oral) of 63.7 nM and a concentration at 1 h (5 mg, Plasma concentration gMean, 5 mg single oral, 1 h) of 144 nM. The concentration at 1.5 h (5 mg, Plasma concentration gMean, 5 mg single oral, 1.5 h) was 134 nM, the concentration at 2 h (5 mg, Plasma concentration gMean, 5 mg single oral, 2 h) was 121 nM and the concentration at 2.5 h (5 mg, Plasma concentration gMean, 5 mg single oral, 2.5 h) was 122 nM. For the same compound, the concentration at 3 h (5 mg, Plasma concentration gMean, 5 mg single oral, 3 h) was 113 nM, the concentration at 4 h (5 mg, Plasma concentration gMean, 5 mg single oral, 4 h) was 104 nM and the concentration at 5 h (5 mg, Plasma concentration gMean, 5 mg single oral, 5 h) was 96 nM. For the same compound, the concentration at 6 h (5 mg, Plasma concentration gMean, 5 mg single oral, 6 h) was 79.9 nM, the concentration at 8 h (5 mg, Plasma concentration gMean, 5 mg single oral, 8 h) was 71.8 nM and the concentration at 10 h (5 mg, Plasma concentration gMean, 5 mg single oral, 10 h) was 56.8 nM. It also gave a concentration at 12 h (5 mg, Plasma concentration gMean, 5 mg single oral, 12 h) of 48.5 nM, a concentration at 24 h (5 mg, Plasma concentration gMean, 5 mg single oral, 24 h) of 30 nM and a concentration at 36 h (5 mg, Plasma concentration gMean, 5 mg single oral, 36 h) of 14.2 nM. The concentration at 48 h (5 mg, Plasma concentration gMean, 5 mg single oral, 48 h) was 12.5 nM, the concentration at 72 h (5 mg, Plasma concentration gMean, 5 mg single oral, 72 h) was 7.05 nM and the concentration at 96 h (5 mg, Plasma concentration gMean, 5 mg single oral, 96 h) was 4.6 nM. For the same compound, the concentration at 1 h (5 mg, Plasma concentration, individual subjects, 5 mg single oral, planned time 1 h) was 112 nM, the concentration at 1.5 h (5 mg, Plasma concentration, individual subjects, 5 mg single oral, planned time 1.5 h) was 144 nM and the concentration at 2 h (5 mg, Plasma concentration, individual subjects, 5 mg single oral, planned time 2 h) was 127 nM. It also gave a concentration at 2.5 h (5 mg, Plasma concentration, individual subjects, 5 mg single oral, planned time 2.5 h) of 122 nM, a concentration at 3 h (5 mg, Plasma concentration, individual subjects, 5 mg single oral, planned time 3 h) of 118 nM and a concentration at 4 h (5 mg, Plasma concentration, individual subjects, 5 mg single oral, planned time 4 h) of 99.5 nM. For the same compound, the concentration at 5 h (5 mg, Plasma concentration, individual subjects, 5 mg single oral, planned time 5 h) was 96.9 nM, the concentration at 6 h (5 mg, Plasma concentration, individual subjects, 5 mg single oral, planned time 6 h) was 80.6 nM and the concentration at 8 h (5 mg, Plasma concentration, individual subjects, 5 mg single oral, planned time 8 h) was 72.1 nM. For the same compound, the concentration at 24 h (5 mg, Plasma concentration, individual subjects, 5 mg single oral, planned time 24 h) was 35.1 nM, the concentration at -0.5 h (5 mg, Plasma concentration, individual subjects, 5 mg single oral, planned time –0.5 h) was 90.2 nM and the AUC(0-inf) (10 mg) was 5.91 µM·h. The AUC(0-t) (10 mg) was 4.38 µM·h, the Cmax (10 mg) was 502 nM and the Tmax (10 mg) was 1 h. The Vd/F (10 mg) was 169 L, the half-life (10 mg) was 23.7 h and the concentration at 24 h (10 mg, C24 gMean (%gCV), 10 mg single oral dose) was 71.3 nM. The concentration at 0.5 h (10 mg, Plasma concentration Mean, 10 mg single oral) was 365 nM, the concentration at 1 h (10 mg, Plasma concentration Mean, 10 mg single oral, 1 h) was 429 nM and the concentration at 1.5 h (10 mg, Plasma concentration Mean, 10 mg single oral, 1.5 h) was 438 nM. For the same compound, the concentration at 2 h (10 mg, Plasma concentration Mean, 10 mg single oral, 2 h) was 382 nM, the concentration at 2.5 h (10 mg, Plasma concentration Mean, 10 mg single oral, 2.5 h) was 376 nM and the concentration at 3 h (10 mg, Plasma concentration Mean, 10 mg single oral, 3 h) was 339 nM. For the same compound, the concentration at 4 h (10 mg, Plasma concentration Mean, 10 mg single oral, 4 h) was 346 nM, the concentration at 5 h (10 mg, Plasma concentration Mean, 10 mg single oral, 5 h) was 277 nM and the concentration at 6 h (10 mg, Plasma concentration Mean, 10 mg single oral, 6 h) was 260 nM. It also gave a concentration at 8 h (10 mg, Plasma concentration Mean, 10 mg single oral, 8 h) of 213 nM, a concentration at 10 h (10 mg, Plasma concentration Mean, 10 mg single oral, 10 h) of 182 nM and a concentration at 12 h (10 mg, Plasma concentration Mean, 10 mg single oral, 12 h) of 146 nM.
